Experimental data: patent publication US11464802B2, “3-substituted piperidine compounds for Cbl-b inhibition, and use thereof” (Nurix Therapeutics, Inc., priority 2019, dated 2022)

Assays:
Cbl-b [1] = target: T1, Cbl-b (Homo sapiens (Human), UniProt Q13191); test: Cbl-b displacement assay (Cbl-b inhibition assay), TR-FRET probe displacement, Biological Example 1; type: binding; details: 0.5 nM Cbl-b final concentration (High); read-out: Cbl-b activity IC50 (High)
How it was run: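 TR-FRET displacement of a BODIPY FL-labelled inhibitor probe (150 nM, ~EC40) from biotin-Avitag truncated Cbl-b, detected via 2 nM streptavidin-Tb, 1 h, room temperature. Compound in 1% DMSO pre-incubated 1 h with Cbl-b at 0.5 nM (High) or 0.125 nM (Low) in 20 mM HEPES pH 7.5, 150 mM NaCl, 0.5 mM TCEP.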

[2] = test system: primary human total T-cells; test: Primary human total T-cell activation: CD25 surface staining, Biological Example 13; type: cell-based; details: 48 hours, fold change over baseline; for fold induction at 1 µM: inhibitor 1 μM
Cbl-b [3] = target: T1, Cbl-b; test: Cbl-b displacement assay (Cbl-b inhibition assay), Biological Example 8; type: binding; details: 0.125 nM Cbl-b final concentration (Low); Table 8-1; read-out: Cbl-b IC50 (Low)
How it was run: (§1)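 Biotinylated Avitag-Cbl-b (residues 36-427) at 0.5 nM ("High") or 0.125 nM ("Low") final was preincubated 1 h at room temperature with compound (1% DMSO) in 20 mM HEPES pH 7.5, 150 mM NaCl, 0.01% Triton X-100, 0.01% BSA, 0.5 mM TCEP. Then 150 nM BODIPY FL inhibitor probe (~EC40) plus 2 nM streptavidin-terbium, 1 h; TR-FRET 520/620 read, IC50 derived.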

TC-1 cells = test: Compound 8 with HPV16 vaccine in TC-1 syngeneic mouse model, Biological Example 16; type: in vivo; details: TC-1 tumor-bearing mice
Experimental: Mice were implanted with 50,000 TC-1 cells/mouse subcutaneously into the right flank (at Day Zero (D0)). Thirteen days later (D13), when tumors measured approximately 50-100 mm^3, mice from appropriate groups (10 mice per group) were injected with HPV16 vaccine (s.c., total 2 doses, at D13 and Day 20 (D20)). […] Mice were euthanized when tumor exceeded 1500-2000 mm^3, according to IACUC guidelines. Survival was compared using GraphPad Prism using log-rank (Mantel-Cox) test. **=p<0.005 of treatment vs. Vehicle+Vaccine control group at Day 61.
TC-1 cells were derived by stable transfection of mouse lung epithelial cells with human papillomavirus strain 16 (HPV16) early proteins 6 and 7 (E6 and E7) and activated h-ras oncogene. Cells were obtained from Dr. T-C Wu (Johns Hopkins University). (Lin K Y, Guarnieri F G, Staveley-O'Carroll K F, Levitsky H I, August J T, Pardoll D M, et al. Treatment of established tumors with a novel vaccine that enhances major histocompatibility class II presentation of tumor antigen. Cancer Res 1996; 56:21-6).
The HPV16 vaccine was prepared as follows: The CTL epitope from HPV16 E749-57 (9 amino acid (aa) peptide, […], 100 μg/mouse, SEQ ID NO: 2) was mixed with synthetic T helper epitope PADRE (13 aa peptide, aK-Cha-[…]a, SEQ ID NO: 3, where “a” is D alanine and Cha is L-cyclohexylalanine, 20 ug/mouse) and with QuilA adjuvant (20 ug/mouse).

Cbl-b [4] = target: T1, Cbl-b; test: Cbl-b displacement assay (Cbl-b inhibition assay), Biological Example 12; type: binding; details: 0.125 nM Cbl-b final concentration (Low); Table 12-1; read-out: Cbl-b IC50 (Low)
How it was run: as §1

[5] = test system: primary human total T-cells; test: Primary human total T-cell activation: IL-2 secretion, Biological Example 2; type: cell-based; details: 48 hours, fold change over baseline; for fold induction at 1 µM: inhibitor 1 μM
[6] = test system: primary human total T-cells; test: Primary human total T-cell activation: IL-2 secretion, Biological Example 13; type: cell-based; details: 48 hours, fold change over baseline; for fold induction at 1 µM: inhibitor 1 μM
[7] = test system: primary human total T-cells; test: Primary human total T-cell activation: CD25 surface staining, Biological Example 9; type: cell-based; details: 48 hours, fold change over baseline; for fold induction at 1 µM: inhibitor 1 μM
[8] = anti-CD3/anti-CD28 co-stimulation, inhibitor 0.3 μM, Table 13-1
[9] = anti-CD3 alone, inhibitor 3 μM, Table 13-1

T1 sequence (Q13191 36-427): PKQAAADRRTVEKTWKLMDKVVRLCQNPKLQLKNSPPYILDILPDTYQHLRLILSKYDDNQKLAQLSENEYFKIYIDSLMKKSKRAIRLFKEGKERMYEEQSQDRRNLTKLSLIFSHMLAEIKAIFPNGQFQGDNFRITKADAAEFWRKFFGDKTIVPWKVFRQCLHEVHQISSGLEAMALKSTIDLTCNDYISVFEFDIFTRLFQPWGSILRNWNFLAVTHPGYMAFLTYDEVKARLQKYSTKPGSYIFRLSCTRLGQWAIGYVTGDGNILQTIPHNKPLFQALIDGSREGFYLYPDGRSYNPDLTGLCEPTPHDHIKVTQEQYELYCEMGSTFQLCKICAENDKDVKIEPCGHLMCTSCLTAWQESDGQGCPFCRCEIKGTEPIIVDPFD

C[C@@H]1CN(Cc2cc3c(c(C(F)(F)F)c2)CN(c2cccc(C4(Cc5nncn5C)COC4)c2)C3=O)CCC1(F)F [Compound 8, (R)-6-((4,4-difluoro-3-methylpiperidin-1-yl)methyl)-2-(3-(3-((4-methyl-4H-1,2,4-triazol-3-yl)methyl)oxetan-3-yl)phenyl)-4-(trifluoromethyl)isoindolin-1-one]
IC50 (Cbl-b [1]): 5.1 to 100 nM
fold induction at 0.3 µM [2, 8]: > 1.39
fold induction at 1 µM ([2]; anti-CD3/anti-CD28 co-stimulation, Table 13-1, read-out: CD25 staining CD3/CD28 1 μM): > 1.39
fold induction at 1 µM ([2]; anti-CD3 alone, Table 13-1, read-out: CD25 staining CD3 1 μM): > 1.14
fold induction at 3 µM [2, 9]: > 1.14
IC50 (Cbl-b [3]): < 1 nM
tumor growth (TC-1 cells; Compound 8 orally D13 to D35, HPV16 vaccine s.c. D13 and D20): significant slowdown of tumor progression
survival (TC-1 cells; Compound 8 orally D13 to D35 with HPV16 vaccine s.c. D13 and D20, vs. Vehicle+Vaccine): prolonged survival
IC50 (Cbl-b [4]): < 1 nM
fold induction at 0.3 µM ([5]; anti-CD3/anti-CD28 co-stimulation, inhibitor 0.3 μM): > 15
fold induction at 1 µM ([5]; anti-CD3/anti-CD28 co-stimulation, read-out: IL-2 secretion CD3/CD28 1 μM): > 15
fold induction at 1 µM ([5]; anti-CD3 alone, read-out: IL-2 secretion CD3 1 μM): 0.34 to 0.66
fold induction at 3 µM ([5]; anti-CD3 alone, inhibitor 3 μM): 0.34 to 0.66
fold induction at 0.3 µM [6, 8]: > 15
fold induction at 1 µM ([6]; anti-CD3/anti-CD28 co-stimulation, Table 13-1, read-out: IL-2 secretion CD3/CD28 1 μM): > 15
fold induction at 1 µM ([6]; anti-CD3 alone, Table 13-1, read-out: IL-2 secretion CD3 1 μM): > 0.66
fold induction at 3 µM [6, 9]: > 0.66
fold induction at 0.3 µM ([7]; anti-CD3/anti-CD28 co-stimulation, inhibitor 0.3 μM, Table 9-1): > 1.39
fold induction at 1 µM ([7]; anti-CD3/anti-CD28 co-stimulation, Table 9-1, read-out: CD25 staining CD3/CD28 1 μM): > 1.39
fold induction at 1 µM ([7]; anti-CD3 alone, Table 9-1, read-out: CD25 staining CD3 1 μM): > 1.14
fold induction at 3 µM ([7]; anti-CD3 alone, inhibitor 3 μM, Table 9-1): > 1.14
